Patent US11155664B2, “Polymeric nanoparticles useful in theranostics” (THE GOVERNING COUNCIL OF THE UNIVERSITY OF TORONTO, priority 2012, dated 2021)
≈ marks a conversion by molar mass, not a printed value.

Tests used:
[1] = tested on: MDA-MB435/LCC6/WT cells; assay: MTT cell viability, wild-type cells; format: cell-based, human
[2] = mouse, in vivo

Row | LV blood R1 [2] [s⁻¹] | LV blood ΔR1 [2] [s⁻¹] | SMILES | IC50 ([1]; 24 hrs treatment) [µg/mL] | IC50 ([1]; 48 hrs treatment) [µg/mL]
1 | – | – | COc1cccc2c1C(=O)c1c(O)c3c(c(O)c1C2=O)C[C@@](O)(C(=O)CO)C[C@@H]3O[C@H]1C[C@H](N)[C@H](O)[C@H](C)O1 [free Dox, doxorubicin] | 0.34 (≈ 0.626 µM) | 0.07 (≈ 0.129 µM)
2 | ~0.7 | ~0.1 | CNC(=O)CN(CCN(CCN(CC(=O)[O-])CC(=O)NC)CC(=O)[O-])CC(=O)[O-].[Gd+3] [Omniscan®, diethylenetriamine pentaacetic acid bismethylamide gadolinium] | – | –
